According to ChEMBL document CHEMBL1150624, “Discovery of natural products from Curcuma longa that protect cells from beta-amyloid insult: a drug discovery effort against Alzheimer's disease” (2002):
Converted amounts (≈) assume the structure as drawn.

Key:
[1] = system: PC-12; experiment: Protection against beta-amyloid (1 to 42) insult in rat PC12 cells assessed as viable cells after 24 hrs by MTT assay; assay type: functional; conditions: PC-12, 24 h, read-out: ED50 (the source's name)
[2] = system: PC-12; experiment: Protection against beta-amyloid (25 to 35) insult in rat PC12 cells assessed as viable cells after 24 hrs by MTT assay; assay type: functional; conditions: PC-12, 24 h, read-out: ED50 (the source's name)

Work on `Nc1c(/N=N/c2ccc(-c3ccc(/N=N/c4cc(S(=O)(=O)[O-])c5ccccc5c4N)cc3)cc2)cc(S(=O)(=O)[O-])c2ccccc12.[Na+].[Na+]` [CONGO RED] yielded an EC50 [1] of 39.2 µg/mL and an EC50 [2] of 37.5 µg/mL.
Work on `O=C(/C=C/C=C/c1ccc(O)cc1)/C=C/c1ccc(O)cc1` yielded an EC50 [1] greater than 50 µg/mL and an EC50 [2] greater than 50 µg/mL.
`COc1cc(/C=C/C(=O)/C=C/c2ccc(O)c(OC)c2)ccc1O` was tested, and the EC50 [1] was greater than 50 µg/mL and the EC50 [2] was greater than 50 µg/mL.
Compound `COc1cc(/C=C/C(=O)CC(=O)/C=C/c2ccc(O)c(OC)c2)ccc1O` [CURCUMIN] has an EC50 [1] of 10 µg/mL (≈ 27.1 µM) and an EC50 [2] of 7 µg/mL (≈ 19 µM).
`COc1cc(/C=C/C=C/C(=O)/C=C/c2ccc(O)c(OC)c2)ccc1O` gave an EC50 [1] greater than 50 µg/mL and an EC50 [2] greater than 50 µg/mL.
In the case of `O=C(/C=C/c1ccc(O)cc1)CC(=O)/C=C/c1ccc(O)cc1` [BISDEMETHOXYCURCUMIN], the EC50 [1] is reported as 3.5 µg/mL (≈ 11.4 µM) and the EC50 [2] is reported as 2 µg/mL (≈ 6.49 µM).
Work on `COc1cc(/C=C/C(=O)CC(=O)CC(O)c2ccc(O)c(OC)c2)ccc1O` (stereo not given) yielded an EC50 [1] of 44.3 µg/mL (≈ 115 µM) and an EC50 [2] of 30.7 µg/mL (≈ 79.5 µM).
`COc1cc(/C=C/C(=O)COC(=O)/C=C/c2ccc(O)c(OC)c2)ccc1O` [CALEBI A] showed an EC50 [1] of 2 µg/mL (≈ 5.2 µM) and an EC50 [2] of 1 µg/mL (≈ 2.6 µM).
`O=C(/C=C/c1ccc(O)cc1)CC(=O)CCc1ccc(O)cc1` was tested, and the EC50 [1] was 1 µg/mL (≈ 3.22 µM) and the EC50 [2] was 0.5 µg/mL (≈ 1.61 µM).
Compound `COc1cc(/C=C/C(O)=C/C(=O)/C=C/c2ccc(O)cc2)ccc1O` [DEMETHOXYCURCUMIN] has an EC50 [1] of 5 µg/mL (≈ 14.8 µM) and an EC50 [2] of 4 µg/mL (≈ 11.8 µM).
